# pIC50: −log10 of the molar value.
# Target: T1, Methionine aminopeptidase (Escherichia coli (strain K12), UniProt P0AE18)
# T1 sequence (P0AE18 whole entry): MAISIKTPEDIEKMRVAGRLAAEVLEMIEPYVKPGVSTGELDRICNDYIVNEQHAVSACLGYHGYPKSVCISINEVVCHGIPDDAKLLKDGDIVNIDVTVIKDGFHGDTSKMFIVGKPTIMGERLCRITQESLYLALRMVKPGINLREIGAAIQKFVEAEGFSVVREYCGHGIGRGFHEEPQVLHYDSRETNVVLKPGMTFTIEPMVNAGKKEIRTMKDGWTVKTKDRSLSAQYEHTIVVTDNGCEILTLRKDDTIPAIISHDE
# Assay: EcMAP Enzyme Inhibition Assay
# Conditions: pH 7.5; 30 °C
# Method: The inhibitory activity of a compound toward EcMAP was measured by incubating the compound at various concentrations in the presence of the enzyme and the peptide substrate MGMM. Activity can be determined based on the amount of GMM produced or the amount of MGMM consumed. The integrated area of the tripeptide or tetrapeptide peak was compared to a calibration curve generated by running HPLC chromatograms of known concentrations of the polypeptides.
row,SMILES,pIC50
1,N=c1nnc(=N)c1=NNc1cccc(C(=O)O)c1O [3-[(E)-2-(5-amino-3-imino-3H-pyrazol-4-yl)diazen-1-yl]-2-hydroxybenzoic acid],5.70
2,COc1ccc(NN=c2c(=N)nnc2=N)cc1 [3-imino-4-[(E)-2-(4-methoxyphenyl)diazen-1-yl]-3H-pyrazol-5-amine],5.82
3,Cc1c(Cl)cccc1NN=c1c(=N)nnc1=N [4-[(E)-2-(3-chloro-2-methylphenyl)diazen-1-yl]-3-imino-3H-pyrazol-5-amine],6.26

# Further lines, results first:
row,pIC50,SMILES
1,6.26,N=c1nnc(=N)c1=NNc1cccc(F)c1 [4-[(E)-2-(3-fluorophenyl)diazen-1-yl]-3-imino-3H-pyrazol-5-amine]
2,5.90,N=c1nnc(=N)c1=NNc1ccc(Cl)cc1 [4-[(E)-2-(4-chlorophenyl)diazen-1-yl]-3-imino-3H-pyrazol-5-amine]
